According to patent US8772307B2, “Substituted spiro compounds and their use for producing pain-relief medicaments” (Gruenenthal GmbH, priority 2005, dated 2014):

Key:
[1] = target: T1, rat-species vanilloid receptor 1 (VR1/TRPV1) (Rattus norvegicus, UniProt O35433); experiment: Functional testing on vanilloid receptor 1 (VR1/TRPV1): FLIPR Ca2+ inflow assay in rat dorsal root ganglia cells (% activation / % inhibition vs capsaicin); type: cell-based; conditions: for inhibition at 10 µM: inhibition compared to 10 μM CP (capsaicin); for activation at 10 µM: stimulation compared to 10 μM CP (capsaicin)
T1 construct: endogenous in cells; host or cells: primary cells dissociated from rat dorsal root ganglia (DRG)
Method in brief: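 Rat dorsal root ganglion cells, dissociated with collagenase and trypsin, were plated at 3×10^5/mL on laminin-coated plates in NGF-containing HAMS F12 and cultured 2-3 days at 37° C. Ca2+ inflow read by Fluo-4 fluorescence on FLIPR; test compounds at 10 μM referenced to 10 μM capsaicin.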

[2] = target: T2, vanilloid receptor (VR1) (Homo sapiens, UniProt Q8NER1); experiment: Functional testing on vanilloid receptor (VR1): FLIPR Ca2+ inflow assay in CHO K1 cells stably transfected with the VR1 gene; type: cell-based; conditions: for inhibition at 10 µM: CHO-K1, inhibition compared to 10 μM CP (capsaicin); for activation at 10 µM: CHO-K1, stimulation compared to 10 μM CP (capsaicin)
T2 construct: expressed in transfected cells; host or cells: CHO K1 cells (ECACC), stably transfected
Method in brief: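 CHO K1 cells stably expressing VR1, loaded with Fluo-4 (2 μM, 30 min, 37° C); peak Ca²⁺ fluorescence read on FLIPR. Compound (10 μM) added first, agonism as % of 10 μM capsaicin signal; after 5 min, 100 nM capsaicin added, % inhibition calculated relative to maximal inhibition with 10 μM capsaicin.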

T2 sequence (Q8NER1 whole entry): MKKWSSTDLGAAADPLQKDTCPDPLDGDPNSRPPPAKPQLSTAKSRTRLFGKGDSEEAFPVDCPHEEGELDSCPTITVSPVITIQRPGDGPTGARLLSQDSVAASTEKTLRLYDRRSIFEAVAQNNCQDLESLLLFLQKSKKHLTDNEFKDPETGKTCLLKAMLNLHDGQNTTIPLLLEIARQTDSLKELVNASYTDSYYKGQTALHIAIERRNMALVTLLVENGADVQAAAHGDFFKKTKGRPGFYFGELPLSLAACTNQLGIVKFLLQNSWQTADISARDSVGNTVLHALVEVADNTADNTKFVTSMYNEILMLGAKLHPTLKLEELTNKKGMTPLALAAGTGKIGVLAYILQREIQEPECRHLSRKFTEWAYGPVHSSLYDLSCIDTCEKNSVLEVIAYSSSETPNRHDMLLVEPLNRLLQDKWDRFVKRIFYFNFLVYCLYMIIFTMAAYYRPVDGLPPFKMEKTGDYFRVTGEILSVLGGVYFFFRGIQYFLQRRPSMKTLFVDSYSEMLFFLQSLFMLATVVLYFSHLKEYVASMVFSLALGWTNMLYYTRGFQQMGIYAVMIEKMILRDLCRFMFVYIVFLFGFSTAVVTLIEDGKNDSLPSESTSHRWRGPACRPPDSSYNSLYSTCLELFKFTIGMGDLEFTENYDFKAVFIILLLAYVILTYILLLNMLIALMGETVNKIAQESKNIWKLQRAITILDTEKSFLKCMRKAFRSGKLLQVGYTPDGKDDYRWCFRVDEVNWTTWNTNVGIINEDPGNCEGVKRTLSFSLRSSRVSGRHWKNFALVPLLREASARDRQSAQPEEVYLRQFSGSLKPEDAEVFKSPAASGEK
T1 sequence (O35433 whole entry): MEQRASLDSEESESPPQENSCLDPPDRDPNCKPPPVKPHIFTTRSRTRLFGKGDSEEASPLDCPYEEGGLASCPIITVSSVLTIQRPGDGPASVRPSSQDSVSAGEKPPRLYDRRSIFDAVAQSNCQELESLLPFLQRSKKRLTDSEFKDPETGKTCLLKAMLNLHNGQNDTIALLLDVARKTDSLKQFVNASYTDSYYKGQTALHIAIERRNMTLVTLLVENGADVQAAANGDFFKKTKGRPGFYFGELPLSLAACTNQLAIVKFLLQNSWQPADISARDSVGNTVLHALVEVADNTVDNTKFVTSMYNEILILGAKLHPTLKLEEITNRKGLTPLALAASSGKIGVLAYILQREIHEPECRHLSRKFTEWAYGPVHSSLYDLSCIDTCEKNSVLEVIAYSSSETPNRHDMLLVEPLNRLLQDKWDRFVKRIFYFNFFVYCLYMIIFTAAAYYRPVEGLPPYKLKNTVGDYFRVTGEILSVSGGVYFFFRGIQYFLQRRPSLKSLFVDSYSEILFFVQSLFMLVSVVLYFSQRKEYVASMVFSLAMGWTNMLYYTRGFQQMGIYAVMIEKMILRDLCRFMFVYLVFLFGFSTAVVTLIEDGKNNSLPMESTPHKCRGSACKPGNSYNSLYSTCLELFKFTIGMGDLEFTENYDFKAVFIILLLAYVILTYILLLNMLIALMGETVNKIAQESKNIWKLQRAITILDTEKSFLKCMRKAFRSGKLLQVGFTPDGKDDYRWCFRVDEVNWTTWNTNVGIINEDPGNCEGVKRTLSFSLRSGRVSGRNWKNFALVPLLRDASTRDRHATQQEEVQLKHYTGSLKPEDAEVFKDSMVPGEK

melting point [°C]	inhibition at 10 µM [1] [%]	activation at 10 µM [1] [%]	inhibition at 10 µM [2] [%]	activation at 10 µM [2] [%]	SMILES
230 to 236	–	–	–	–	CC(C)(C)c1ccc2[nH]c(N3CCC4(CC3)CC(c3ccccc3)=NO4)nc2c1 [Compound 379, 8-(5-tert-butyl-1H-benzimidazol-2-yl)-3-phenyl-1-oxa-2,8-diazaspiro[4.5]dec-2-ene]
–	48.4	-0.47	-7.84	-0.28	Cc1ccc(C2=NOC3(CCN(C(=S)NC4CCCC4)CC3)C2)cc1 [Compound 290, 3-p-tolyl-1-oxa-2,8-diazaspiro[4.5]dec-2-ene-8-thiocarboxylic acid cyclopentylamide]
–	101	3	60	0	O=C(Nc1ccc(C(F)(F)F)cc1)N1CCC2(CC1)CC(c1cccc(F)c1)=NO2 [Compound 348, 3-(3-fluorophenyl)-N-(4-(trifluoromethyl)phenyl)-1-oxa-2,8-diazaspiro[4.5]dec-2-ene-8-carboxamide]
–	94	0	74	-1	O=C(/C=C/c1ccc(C(F)(F)F)nc1N1CCCCC1)N1CCC2(CC1)CC(c1cccc(F)c1)=NO2 [Compound 365, (E)-1-(3-(3-fluorophenyl)-1-oxa-2,8-diazaspiro[4.5]dec-2-en-8-yl)-3-(2-(piperidin-1-yl)-6-(trifluoromethyl)pyridin-3-yl)prop-2-en-1-one]
–	47.8	-0.47	-4.5	0.31	Cc1ccc(C2=NOC3(CCN(C(=O)Nc4cc(C(F)(F)F)ccc4Cl)CC3)C2)cc1 [Compound 225, 3-p-tolyl-1-oxa-2,8-diazaspiro[4.5]dec-2-ene-8-carboxylic acid-(2-chloro-5-trifluoromethylphenyl)amide]
–	99	2.55	11	0.28	O=C(Nc1ccc(OC(F)(F)F)cc1)N1CCC2(CC1)CC(c1ccccc1)=NO2 [Compound 245, 3-phenyl-1-oxa-2,8-diazaspiro[4.5]dec-2-ene-8-carboxylic acid-(4-trifluoromethoxyphenyl)amide]
–	96	71	37	38	CC(C)(C)c1ccc(NC(=O)N2CCC3(CC2)CC(c2ncccc2Cl)=NO3)cc1 [Compound 329, 3-(3-chloropyridin-2-yl)-1-oxa-2,8-diazaspiro[4.5]dec-2-ene-8-carboxylic acid-(4-tert-butylphenyl)amide]
–	101	6	83	3	CC(C)(C)c1ccc(NC(=O)N2CCC3(CC2)CC(c2cccc(F)c2)=NO3)cc1 [Compound 351, N-(4-tert-butylphenyl)-3-(3-fluorophenyl)-1-oxa-2,8-diazaspiro[4.5]dec-2-ene-8-carboxamide]
–	83	0	66	0	CC(C)(C)c1ccc(/C=C/C(=O)N2CCC3(CC2)CC(c2ccccc2)=NO3)c(Br)c1 [Compound 368, (E)-3-(2-bromo-4-tert-butylphenyl)-1-(3-phenyl-1-oxa-2,8-diazaspiro[4.5]dec-2-en-8-yl)prop-2-en-1-one]
–	29	0	-20	-1	CC(C(=O)N1CCC2(CC1)CC(c1cccc(F)c1)=NO2)c1ccc(NS(C)(=O)=O)c(F)c1 (stereo not drawn) [Compound 366, N-(2-fluoro-4-(1-(3-(3-fluorophenyl)-1-oxa-2,8-diazaspiro[4.5]dec-2-en-8-yl)-1-oxopropan-2-yl)phenyl)methanesulphonamide]

Continued, compound first:

SMILES	melting point [°C]	inhibition at 10 µM [1] [%]	activation at 10 µM [1] [%]	inhibition at 10 µM [2] [%]	activation at 10 µM [2] [%]
CC(C)(C)c1ccc(NC(=O)N2CCC3(CC2)CC(c2ccc(C(F)(F)F)cc2)=NO3)cc1 [Compound 145, 3-(4-trifluoromethylphenyl)-1-oxa-2,8-diazaspiro[4.5]dec-2-ene-8-carboxylic acid-(4-tert-butylphenyl)amide]	–	59.9	-0.2	4.26	2.49
CC(C)c1ccc(NC(=O)N2CCC3(CC2)CC(c2ccccc2)=NO3)cc1 [Compound 78, 3-phenyl-1-oxa-2,8-diazaspiro[4.5]dec-2-ene-8-carboxylic acid-(4-isopropylphenyl)amide]	–	95	0.02	11.8	0.11
CCc1ccc(NC(=O)N2CCC3(CC2)CC(c2ccc(C(C)(C)C)cc2)=NO3)cc1 [Compound 165, 3-(4-tert-butylphenyl)-1-oxa-2,8-diazaspiro[4.5]dec-2-ene-8-carboxylic acid-(4-ethylphenyl)amide]	–	56.2	-0.43	1.69	1.92
COc1cccc(C2=NOC3(CCN(C(=O)Nc4cccc(Br)c4)CC3)C2)c1 [Compound 192, 3-(3-methoxyphenyl)-1-oxa-2,8-diazaspiro[4.5]dec-2-ene-8-carboxylic acid-(3-bromophenyl)amide]	–	52.1	-0.07	-6.74	-0.04
O=C(Nc1ccc(Br)cc1)N1CCC2(CC1)CC(c1ccccc1)=NO2 [Compound 197, 3-phenyl-1-oxa-2,8-diazaspiro[4.5]dec-2-ene-8-carboxylic acid-(4-bromophenyl)amide]	–	59.9	-0.35	-17.2	0.06
CCc1ccc(NC(=O)N2CCC3(CC2)CC(c2ccc(Cl)cc2)=NO3)cc1 [Compound 164, 3-(4-chlorophenyl)-1-oxa-2,8-diazaspiro[4.5]dec-2-ene-8-carboxylic acid-(4-ethylphenyl)amide]	–	72.9	-0.43	-2.13	-0.04
O=C(Nc1cccc(Br)c1)N1CCC2(CC1)CC(c1ccccc1)=NO2 [Compound 193, 3-phenyl-1-oxa-2,8-diazaspiro[4.5]dec-2-ene-8-carboxylic acid-(3-bromophenyl)amide]	–	43.6	-0.17	-2.64	0.11
O=C(Nc1ccc(C(F)(F)F)cc1)N1CCC2(CC1)CC(c1ccc(Cl)cc1)=NO2 [Compound 212, 3-(4-chlorophenyl)-1-oxa-2,8-diazaspiro[4.5]dec-2-ene-8-carboxylic acid-(4-trifluoromethylphenyl)amide]	–	61.9	-0.43	-16.1	-0.21
